Conditions: Liquid, Closed cell (Static) method

O [water]
Conditions	vapor or sublimation pressure [kPa]
298 K	3.35
313 K	7.4
323 K	12.12
328.2 K	15.07
333 K	18.99
337.5 K	23.33
